Where a name gives a salt, the structure may show the parent alone. Read-outs that look alike come from different tables or passages of the source.
How the values were obtained:
[1] = target: T1, SARS-CoV-2 PLpro (nsp3 1564–1878) (Severe acute respiratory syndrome coronavirus 2, UniProt P0DTD1); test: biochemical; design: FRET-quenched peptide (Pro3) cleavage by PLpro, 10 min pre-incubation, slope over 20 min, normalised to no-compound control; details: low concentration screen, read-out: % of control remaining
[2] = target: T1, SARS-CoV-2 PLpro (nsp3 1564–1878); test: biochemical; design: FRET-quenched peptide (Pro3) cleavage by PLpro, 10 min pre-incubation, slope over 20 min, normalised to no-compound control; details: high concentration screen, read-out: % of control remaining

SMILES: C[C@]12C=CC(=O)N[C@@H]1CC[C@@H]1[C@@H]2CC[C@]2(C)[C@@H](C(=O)Nc3cc(C(F)(F)F)ccc3C(F)(F)F)CC[C@@H]12 [Dutasteride]
- remaining activity at 1.25 µM ([1]; Well no.=5107): 106%
- remaining activity at 3.75 µM ([2]; Well no.=5107): 107%

SMILES: O=C1CN(/N=C/c2ccc(-c3ccc([N+](=O)[O-])cc3)o2)C(=O)N1 [Dantrolene sodium]
- remaining activity at 1.25 µM ([1]; Well no.=490): 103%
- remaining activity at 3.75 µM ([2]; Well no.=490): 103%

SMILES: O=c1[nH]c2ccccc2n1C1CCN(CCCC(c2ccc(F)cc2)c2ccc(F)cc2)CC1 [Pimozide]
- remaining activity at 1.25 µM ([1]; Well no.=1094): 93.3%
- remaining activity at 1.25 µM ([1]; Well no.=1595): 99.2%
- remaining activity at 3.75 µM ([2]; Well no.=1094): 95%
- remaining activity at 3.75 µM ([2]; Well no.=1595): 95.7%

SMILES: Nc1ncnc2c1ncn2[C@@H]1O[C@H](COP(=O)(O)O)[C@@H](O)[C@H]1O [Adenosine 5'-monophosphate monohydrate]
- remaining activity at 1.25 µM ([1]; Well no.=7902): 96.3%
- remaining activity at 1.25 µM ([1]; Well no.=8121): 106%
- remaining activity at 3.75 µM ([2]; Well no.=7902): 101%

SMILES: CCN(CCCc1ccccc1)CCCc1ccccc1 [Alverine (citrate)]
- remaining activity at 1.25 µM ([1]; Well no.=8203): 106%
- remaining activity at 3.75 µM ([2]; Well no.=8203): 106%

SMILES: CCCc1nc(C)c2c(O)nc(-c3cc(S(=O)(=O)N4CCN(CC)CC4)ccc3OCC)nn12 [Vardenafil HCl Trihydrate]
- remaining activity at 1.25 µM ([1]; Well no.=8292): 101%
- remaining activity at 3.75 µM ([2]; Well no.=8292): 94.4%

SMILES: O=c1ccn([C@@H]2O[C@H](COP(=O)(O)O)[C@@H](O)[C@H]2O)c(=O)[nH]1 [Uridine 5'-monophosphate]
- remaining activity at 1.25 µM ([1]; Well no.=7495): 103%
- remaining activity at 1.25 µM ([1]; Well no.=8889): 101%
- remaining activity at 3.75 µM ([2]; Well no.=7495): 103%
- remaining activity at 3.75 µM ([2]; Well no.=8889): 99%

SMILES: O=C1C=CC[C@@H]2[C@H]3CCCN4CCC[C@@H](CN12)[C@@H]34 [Sophocarpine]
- remaining activity at 1.25 µM ([1]; Well no.=4870): 99.5%
- remaining activity at 3.75 µM ([2]; Well no.=4870): 101%

SMILES: CCCCCCCCCCCCCCCCOP(=O)([O-])OCC[N+](C)(C)C [Miltefosine]
- remaining activity at 1.25 µM ([1]; Well no.=1767): 101%
- remaining activity at 3.75 µM ([2]; Well no.=1767): 100%

SMILES: CC(CCc1ccc(O)cc1)NCCc1ccc(O)c(O)c1 (stereo not shown) [Dobutamine.HCl]
- remaining activity at 1.25 µM ([1]; Well no.=1781): 101%
- remaining activity at 3.75 µM ([2]; Well no.=1781): 103%

SMILES: CCc1nn(CCCN2CCN(c3cccc(Cl)c3)CC2)c(=O)n1CCOc1ccccc1 [Nefazodone]
- remaining activity at 1.25 µM ([1]; Well no.=2009): 101%
- remaining activity at 3.75 µM ([2]; Well no.=2009): 101%

SMILES: CCC1(c2c[nH]cn2)Cc2ccccc2C1 [Atipamezole]
- remaining activity at 1.25 µM ([1]; Well no.=6663): 101%
- remaining activity at 3.75 µM ([2]; Well no.=6663): 101%

SMILES: Cn1cc(CNCC2CCN(c3ncc(C(=O)NO)cn3)CC2)c2ccccc21 [JNJ-26481585]
- remaining activity at 1.25 µM ([1]; Well no.=5224): 98.6%
- remaining activity at 3.75 µM ([2]; Well no.=5224): 98.4%

SMILES: NC1CCN(c2cccc(Cl)n2)CC1 [SR 57227A]
- remaining activity at 1.25 µM ([1]; Well no.=1262): 103%
- remaining activity at 3.75 µM ([2]; Well no.=1262): 102%

SMILES: Nc1ccn([C@@H]2O[C@H](CO)[C@@H](O)[C@@H]2O)c(=O)n1 [Cytarabine]
- remaining activity at 1.25 µM ([1]; Well no.=1938): 99.8%
- remaining activity at 1.25 µM ([1]; Well no.=8847): 108%
- remaining activity at 3.75 µM ([2]; Well no.=1938): 98.4%
- remaining activity at 3.75 µM ([2]; Well no.=8847): 105%

SMILES: CCCCS(=N)(=O)CCC(N)C(=O)O [L-Buthionine-sulfoximine]
- remaining activity at 1.25 µM ([1]; Well no.=315): 97.6%
- remaining activity at 3.75 µM ([2]; Well no.=315): 97.7%

SMILES: COc1cc(CC(=O)O)ccc1O [Homovanillic acid]
- remaining activity at 1.25 µM ([1]; Well no.=6831): 96.9%
- remaining activity at 3.75 µM ([2]; Well no.=6831): 97%

SMILES: CN1[C@@H]2CCC[C@H]1C[C@@H](NC(=O)c1nn(C)c3ccccc13)C2 [Granisetron]
- remaining activity at 1.25 µM ([1]; Well no.=1910): 93.3%
- remaining activity at 3.75 µM ([2]; Well no.=1910): 91.6%

SMILES: CCCCCCCCCCCCCC/C=C\CCCC(=O)O [5(Z)-Eicosenoic acid]
- remaining activity at 1.25 µM ([1]; Well no.=4408): 101%
- remaining activity at 3.75 µM ([2]; Well no.=4408): 92.5%

SMILES: COc1c(C)c2c(c(O)c1C/C=C(\C)CCC(=O)O)C(=O)OC2 [Mycophenolic Acid]
- remaining activity at 1.25 µM ([1]; Well no.=1553): 100%
- remaining activity at 1.25 µM ([1]; Well no.=3415): 96.4%
- remaining activity at 3.75 µM ([2]; Well no.=1553): 99.9%
- remaining activity at 3.75 µM ([2]; Well no.=3415): 98.7%

SMILES: OCCN1C[C@H](O)[C@@H](O)[C@H](O)[C@H]1CO [Miglitol]
- remaining activity at 1.25 µM ([1]; Well no.=8340): 92.9%
- remaining activity at 3.75 µM ([2]; Well no.=8340): 92.7%

SMILES: CN(CC(=O)O)C(=N)N [Creatine]
- remaining activity at 1.25 µM ([1]; Well no.=7457): 101%
- remaining activity at 3.75 µM ([2]; Well no.=7457): 103%

SMILES: C[C@H](c1ccc(F)cc1CCCC(=O)O)N(c1cc(F)ccc1F)S(=O)(=O)c1ccc(Cl)cc1 [4-[2-((1R)-1-{[(4-chlorophenyl)sulfonyl]-2,5-difluoroanilino}ethyl)-5-fluorophenyl]butanoic acid]
- remaining activity at 1.25 µM ([1]; Well no.=5465): 98.3%
- remaining activity at 3.75 µM ([2]; Well no.=5465): 102%

SMILES: Nc1nc(N)nc(-c2cc(Cl)ccc2Cl)n1 [Irsogladine]
- remaining activity at 1.25 µM ([1]; Well no.=2148): 98.6%
- remaining activity at 1.25 µM ([1]; Well no.=7629): 94%
- remaining activity at 3.75 µM ([2]; Well no.=2148): 98.3%
- remaining activity at 3.75 µM ([2]; Well no.=7629): 88.4%

SMILES: O=C(Nc1ccccc1)c1cc([N+](=O)[O-])ccc1Cl [GW9662]
- remaining activity at 1.25 µM ([1]; Well no.=1122): 88.3%
- remaining activity at 3.75 µM ([2]; Well no.=1122): 89.4%

SMILES: CCCN1CC[C@@H]2c3cc(O)ccc3CC[C@@H]21
- remaining activity at 1.25 µM ([1]; Well no.=1044): 98.9%
- remaining activity at 3.75 µM ([2]; Well no.=1044): 100%

SMILES: CCCCCC(O)/C=C/C=C\CCCCCCCC(=O)O (racemic)
- remaining activity at 1.25 µM ([1]; Well no.=4382): 99.2%
- remaining activity at 3.75 µM ([2]; Well no.=4382): 96.6%

SMILES: CCOC(=O)c1c2c3c(cccc3[nH]c1=O)C(=O)c1ccccc1-2 [NQDI-1]
- remaining activity at 1.25 µM ([1]; Well no.=5480): 90.1%
- remaining activity at 3.75 µM ([2]; Well no.=5480): 96.7%

SMILES: O=C1O/C(=C/Br)CCC1c1cccc2ccccc12 (stereo not shown) [Bromoenol lactone]
- remaining activity at 1.25 µM ([1]; Well no.=310): 93%
- remaining activity at 3.75 µM ([2]; Well no.=310): 96.9%

SMILES: C[C@@H](N)C(=O)O [D-Alanine]
- remaining activity at 1.25 µM ([1]; Well no.=7693): 107%
- remaining activity at 3.75 µM ([2]; Well no.=7693): 105%

SMILES: CCOc1cc(N2CCC(O)CC2)ccc1Nc1ncc2c(n1)N(C)c1ccccc1C(=O)N2C [XMD8-92]
- remaining activity at 1.25 µM ([1]; Well no.=5565): 93.8%
- remaining activity at 3.75 µM ([2]; Well no.=5565): 95.2%

SMILES: Cc1cc(Cn2cnc3c2C[C@@H](C(=O)O)N(C(=O)C(c2ccccc2)c2ccccc2)C3)ccc1N(C)C [PD 123319 (ditrifluoroacetate)]
- remaining activity at 1.25 µM ([1]; Well no.=7145): 97.1%
- remaining activity at 1.25 µM ([1]; Well no.=8406): 94.2%
- remaining activity at 3.75 µM ([2]; Well no.=7145): 96.9%
- remaining activity at 3.75 µM ([2]; Well no.=8406): 92.3%

SMILES: O=C(O)CNC(=O)c1ccccc1 [Hippuric acid]
- remaining activity at 1.25 µM ([1]; Well no.=7309): 109%
- remaining activity at 3.75 µM ([2]; Well no.=7309): 106%

From PMC8286840, “Identifying SARS-CoV-2 antiviral compounds by screening for small molecule inhibitors of Nsp3 papain-like protease” (Biochemical Journal, 2021)
